Measured values taken from PubChem BioAssay AID1963971 (Molecular Pharmacology Branch, DTP, NCI, 2024).

System: 953936-095-R-J2-PDC spheroids with HUVEC/MSC, viability
Assay: Anticancer human tumor 953936-095-R-J2-PDC patient-derived cervical squamous cell carcinoma cell line growth inhibition [PI3K]
Settings: for viability, T/C: stronger effect = lower value
Summary of the method: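 Three cell types, namely tumor cells, endothelial cells and mesenchymal stem cells, formed each spheroid. Combinations with four PI3K inhibitors were screened at clinically achievable concentrations decreasing by half-log, and spheroid viability was recorded.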

[1] = curve of first compound, second compound 0.00316 µM
[2] = curve of first compound, second compound 0.01 µM
[3] = curve of first compound, second compound 0.0316 µM
[4] = curve of first compound, second compound 0.1 µM
[5] = curve of first compound, second compound 0.316 µM
[6] = curve of first compound, second compound 1 µM
[7] = second compound 0.00316 µM, first compound 0.0316 µM
[8] = second compound 0.00316 µM, first compound 0.1 µM
[9] = second compound 0.01 µM, first compound 0.0316 µM
[10] = second compound 0.01 µM, first compound 0.1 µM
[11] = second compound 0.0316 µM, first compound 0.00316 µM
[12] = second compound 0.0316 µM, first compound 0.01 µM
[13] = second compound 0.0316 µM, first compound 0.0316 µM
[14] = second compound 0.0316 µM, first compound 0.1 µM
[15] = second compound 0.1 µM, first compound 0.00316 µM
[16] = second compound 0.1 µM, first compound 0.01 µM
[17] = second compound 0.1 µM, first compound 0.0316 µM
[18] = second compound 0.1 µM, first compound 0.1 µM
[19] = second compound 0.316 µM, first compound 0.00316 µM
[20] = second compound 0.316 µM, first compound 0.01 µM
[21] = second compound 0.316 µM, first compound 0.0316 µM
[22] = second compound 0.316 µM, first compound 0.1 µM
[23] = second compound 1 µM, first compound 0.00316 µM
[24] = second compound 1 µM, first compound 0.01 µM
[25] = second compound 1 µM, first compound 0.0316 µM
[26] = second compound 1 µM, first compound 0.1 µM
[27] = second compound 0.00316 µM, first compound 0.316 µM
[28] = second compound 0.00316 µM, first compound 1 µM
[29] = second compound 0.00316 µM, first compound 3.16 µM
[30] = second compound 0.00316 µM, first compound 10 µM
[31] = second compound 0.01 µM, first compound 0.316 µM
[32] = second compound 0.01 µM, first compound 1 µM
[33] = second compound 0.01 µM, first compound 3.16 µM
[34] = second compound 0.01 µM, first compound 10 µM
[35] = second compound 0.0316 µM, first compound 0.316 µM
[36] = second compound 0.0316 µM, first compound 1 µM
[37] = second compound 0.0316 µM, first compound 3.16 µM
[38] = second compound 0.0316 µM, first compound 10 µM
[39] = second compound 0.1 µM, first compound 0.316 µM
[40] = second compound 0.1 µM, first compound 1 µM
[41] = second compound 0.1 µM, first compound 3.16 µM
[42] = second compound 0.1 µM, first compound 10 µM
[43] = second compound 0.316 µM, first compound 0.316 µM
[44] = second compound 0.316 µM, first compound 1 µM
[45] = second compound 0.316 µM, first compound 3.16 µM
[46] = second compound 0.316 µM, first compound 10 µM
[47] = second compound 1 µM, first compound 0.316 µM
[48] = second compound 1 µM, first compound 1 µM
[49] = second compound 1 µM, first compound 3.16 µM
[50] = second compound 1 µM, first compound 10 µM
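Note: spheroids exposed to compounds for seven days before read-out.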

## CC(=O)c1c(C)c2cnc(Nc3ccc(N4CCNCC4)cn3)nc2n(C2CCCC2)c1=O + COc1c(OCCCN2CCOCC2)ccc2c3n(c(=NC(=O)c4cnc(N)nc4)nc12)CCN3
[1]
  IC50: > 100 nM
[2]
  IC50: > 100 nM
[3]
  IC50: < 0.316 nM
[4]
  IC50: < 0.316 nM
[5]
  IC50: < 0.316 nM
[6]
  IC50: < 0.316 nM
Second compound 0.00316 µM, first compound 0.000316 µM
  viability, T/C: 87.4%
Second compound 0.00316 µM, first compound 0.001 µM
  viability, T/C: 85.6%
Second compound 0.00316 µM, first compound 0.00316 µM
  viability, T/C: 105%
Second compound 0.00316 µM, first compound 0.01 µM
  viability, T/C: 88.4%
[7]
  viability, T/C: 94.3%
[8]
  viability, T/C: 81.4%
Second compound 0.01 µM, first compound 0.000316 µM
  viability, T/C: 71.5%
Second compound 0.01 µM, first compound 0.001 µM
  viability, T/C: 77.9%
Second compound 0.01 µM, first compound 0.00316 µM
  viability, T/C: 82.6%
Second compound 0.01 µM, first compound 0.01 µM
  viability, T/C: 78%
[9]
  viability, T/C: 76.9%
[10]
  viability, T/C: 66.6%
Second compound 0.0316 µM, first compound 0.000316 µM
  viability, T/C: 40.5%
Second compound 0.0316 µM, first compound 0.001 µM
  viability, T/C: 40.2%
[11]
  viability, T/C: 36.7%
[12]
  viability, T/C: 40.6%
[13]
  viability, T/C: 38.2%
[14]
  viability, T/C: 37.1%
Second compound 0.1 µM, first compound 0.000316 µM
  viability, T/C: 20.1%
Second compound 0.1 µM, first compound 0.001 µM
  viability, T/C: 17.4%
[15]
  viability, T/C: 18.9%
[16]
  viability, T/C: 19.3%
[17]
  viability, T/C: 17.6%
[18]
  viability, T/C: 18.4%
Second compound 0.316 µM, first compound 0.000316 µM
  viability, T/C: 6.83%
Second compound 0.316 µM, first compound 0.001 µM
  viability, T/C: 6.01%
[19]
  viability, T/C: 6.03%
[20]
  viability, T/C: 7.86%
[21]
  viability, T/C: 7.33%
[22]
  viability, T/C: 5.96%
Second compound 1 µM, first compound 0.000316 µM
  viability, T/C: 1.78%
Second compound 1 µM, first compound 0.001 µM
  viability, T/C: 1.73%
[23]
  viability, T/C: 1.47%
[24]
  viability, T/C: 1.54%
[25]
  viability, T/C: 2.14%
[26]
  viability, T/C: 1.68%

## CC(C)n1nc(-c2ccc3oc(N)nc3c2)c2c(N)ncnc21
Compound 0.000316 µM
  viability, T/C: 91% [middle of 4 runs]
Compound 0.001 µM
  viability, T/C: 92.7% [middle of 4 runs]
Compound 0.00316 µM
  viability, T/C: 88.9% [middle of 4 runs]
Compound 0.01 µM
  viability, T/C: 73.4% [middle of 4 runs]
Compound 0.0316 µM
  viability, T/C: 50.6% [middle of 4 runs]
Compound 0.1 µM
  viability, T/C: 17.6% [middle of 4 runs]
Curve of compound
  IC50: 32.4 nM [middle of 4 runs]

## C[C@@H](NC(=O)c1ncnc(N)c1Cl)c1ncc(C(=O)Nc2cc(C(F)(F)F)c(Cl)cn2)s1 + CC(Nc1ccc2c(c1)OCCn1cc(N3C(=O)OCC3C(F)F)nc1-2)C(N)=O
[1]
  IC50: > 10000 nM
[2]
  IC50: > 10000 nM
[3]
  IC50: > 10000 nM
[4]
  IC50: > 10000 nM
[5]
  IC50: < 31.6 nM
[6]
  IC50: < 31.6 nM
[7]
  viability, T/C: 98.6%
[8]
  viability, T/C: 103%
[27]
  viability, T/C: 101%
[28]
  viability, T/C: 104%
[29]
  viability, T/C: 113%
[30]
  viability, T/C: 97.7%
[9]
  viability, T/C: 97.2%
[10]
  viability, T/C: 89.3%
[31]
  viability, T/C: 102%
[32]
  viability, T/C: 99.5%
[33]
  viability, T/C: 107%
[34]
  viability, T/C: 121%
[13]
  viability, T/C: 78.6%
[14]
  viability, T/C: 74.3%
[35]
  viability, T/C: 78.2%
[36]
  viability, T/C: 90.8%
[37]
  viability, T/C: 93.9%
[38]
  viability, T/C: 85.2%
[17]
  viability, T/C: 55.6%
[18]
  viability, T/C: 56.5%
[39]
  viability, T/C: 61.2%
[40]
  viability, T/C: 61.5%
[41]
  viability, T/C: 67.8%
[42]
  viability, T/C: 53.2%
[21]
  viability, T/C: 37.2%
[22]
  viability, T/C: 34.8%
[43]
  viability, T/C: 38.3%
[44]
  viability, T/C: 39.8%
[45]
  viability, T/C: 40.8%
[46]
  viability, T/C: 41.9%
[25]
  viability, T/C: 23%
[26]
  viability, T/C: 26.8%
[47]
  viability, T/C: 25.3%
[48]
  viability, T/C: 27.2%
[49]
  viability, T/C: 27.7%
[50]
  viability, T/C: 24.8%

## Cn1ncc(Cl)c1-c1cc(C(=O)NC(CN)Cc2cccc(F)c2)sc1Cl (stereo not given) + COc1c(OCCCN2CCOCC2)ccc2c3n(c(=NC(=O)c4cnc(N)nc4)nc12)CCN3
[1]
  IC50: 486 nM
[2]
  IC50: 337 nM
[3]
  IC50: < 31.6 nM
[4]
  IC50: < 31.6 nM
[5]
  IC50: < 31.6 nM
[6]
  IC50: < 31.6 nM
[7]
  viability, T/C: 81.2%
[8]
  viability, T/C: 85.4%
[27]
  viability, T/C: 54.1%
[28]
  viability, T/C: 36.5%
[29]
  viability, T/C: 17.8%
[30]
  viability, T/C: 10.2%
[9]
  viability, T/C: 69.4%
[10]
  viability, T/C: 68.6%
[31]
  viability, T/C: 49.8%
[32]
  viability, T/C: 28.7%
[33]
  viability, T/C: 14.4%
[34]
  viability, T/C: 8.14%
[13]
  viability, T/C: 39.1%
[14]
  viability, T/C: 36.8%
[35]
  viability, T/C: 32.5%
[36]
  viability, T/C: 19.1%
[37]
  viability, T/C: 9.8%
[38]
  viability, T/C: 4.58%
[17]
  viability, T/C: 21.8%
[18]
  viability, T/C: 17.8%
[39]
  viability, T/C: 14.3%
[40]
  viability, T/C: 12.9%
[41]
  viability, T/C: 6.24%
[42]
  viability, T/C: 2.41%
[21]
  viability, T/C: 5.73%
[22]
  viability, T/C: 5.77%
[43]
  viability, T/C: 6.01%
[44]
  viability, T/C: 3.54%
[45]
  viability, T/C: 3.19%
[46]
  viability, T/C: 1.52%
[25]
  viability, T/C: 1.54%
[26]
  viability, T/C: 1.61%
[47]
  viability, T/C: 1.15%
[48]
  viability, T/C: 1.37%
[49]
  viability, T/C: 1.11%
[50]
  viability, T/C: 0.46%

## CCN1CCN(Cc2ccc(Nc3ncc(F)c(-c4cc(F)c5nc(C)n(C(C)C)c5c4)n3)nc2)CC1 + Cc1nc(NC(=O)N2CCCC2C(N)=O)sc1-c1ccnc(C(C)(C)C(F)(F)F)c1
[3]
  IC50: > 1000 nM
[4]
  IC50: > 1000 nM
[5]
  IC50: > 1000 nM
[6]
  IC50: < 3.16 nM
Curve of first compound, second compound 3.16 µM
  IC50: < 3.16 nM
Curve of first compound, second compound 10 µM
  IC50: < 3.16 nM
[11]
  viability, T/C: 89.8%
[12]
  viability, T/C: 93.8%
[13]
  viability, T/C: 88%
[14]
  viability, T/C: 88.6%
[35]
  viability, T/C: 87.1%
[36]
  viability, T/C: 75.5%
[15]
  viability, T/C: 84.8%
[16]
  viability, T/C: 83.4%
[17]
  viability, T/C: 83.4%
[18]
  viability, T/C: 78.3%
[39]
  viability, T/C: 76%
[40]
  viability, T/C: 73.4%
[19]
  viability, T/C: 66.3%
[20]
  viability, T/C: 63.4%
[21]
  viability, T/C: 65.9%
[22]
  viability, T/C: 55.8%
[43]
  viability, T/C: 58.6%
[44]
  viability, T/C: 53%
[23]
  viability, T/C: 47.6%
[24]
  viability, T/C: 46%
[25]
  viability, T/C: 43.7%
[26]
  viability, T/C: 41.8%
[47]
  viability, T/C: 38.3%
[48]
  viability, T/C: 36.7%
Second compound 3.16 µM, first compound 0.00316 µM
  viability, T/C: 26.6%
Second compound 3.16 µM, first compound 0.01 µM
  viability, T/C: 26.3%
Second compound 3.16 µM, first compound 0.0316 µM
  viability, T/C: 24.4%
Second compound 3.16 µM, first compound 0.1 µM
  viability, T/C: 23.6%
Second compound 3.16 µM, first compound 0.316 µM
  viability, T/C: 23.3%
Second compound 3.16 µM, first compound 1 µM
  viability, T/C: 22.2%
Second compound 10 µM, first compound 0.00316 µM
  viability, T/C: 10.8%
Second compound 10 µM, first compound 0.01 µM
  viability, T/C: 11.2%
Second compound 10 µM, first compound 0.0316 µM
  viability, T/C: 10.5%
Second compound 10 µM, first compound 0.1 µM
  viability, T/C: 9.34%
Second compound 10 µM, first compound 0.316 µM
  viability, T/C: 9.59%
Second compound 10 µM, first compound 1 µM
  viability, T/C: 11.1%
